Measured values taken from patent publication US12642862B2, “Anti-CD79B antibody-drug conjugate, and preparation method therefor and pharmaceutical use thereof” (TUOJIE BIOTECH (SHANGHAI) CO., LTD., priority 2020, dated 2026).
Where “and” joins values, the source holds several entries; their conditions need not be identical. Identical values can stand only once. Like-named read-outs stand apart in the source and are kept apart here.

Experiments:
[1] = test system: DOHH-2 cells highly expressing human CD79B protein; format: cell-based; conditions: DoHH2 cells, 20 μg/mL ADC, 37° C.
Description: A cell endocytosis experiment was performed with DOHH-2 cells (DSMZ, ACC 47) highly expressing human CD79B protein to assess the endocytosis ability of ADCs.
The cells were collected by low temperature centrifugation at 4° C. for 5 min at 1000 rpm during the experiment. The cells were resuspended in 10-15 mL of FACS buffer pre-cooled on ice. The FACS buffer was composed of phosphate buffered saline (PBS), pH 7.4, with 2% fetal bovine serum (FBS). Throughout the experiment, FACS buffer was pre-cooled on ice. The cells were counted and centrifuged, and added to a 96-well plate at 300,000 cells/well. After centrifugation, the supernatant was discarded, and 12.5 μg/mL Fc blocking solution (BD, Cat No.: 564220) was added at 100 μL/well. Blocking was performed at room temperature for 10 min. Then, 20 μg/mL test ADC was added to the corresponding wells, and the plate was incubated at 4° C. for 1 h away from the light. The plate was washed twice with a pre-cooled PBS buffer to remove unbound ADCs. A complete cell culture medium (RPMI 1640 medium with 10% fetal bovine serum) was added, and the plate was incubated at 37° C. with 5% CO2 for 0 h and 4 h. […] The cells were resuspended in an FACS buffer at 200 μL/well and detected using a flow cytometer (BD FACS Calibur).

Raji = format: cell-based; conditions: Raji (CD79B negative-expression), 72 h, MTT
Description: (§1) This example was performed to evaluate the effect of different ADCs on the proliferation of DoHH2, WSU-DLCL2 and Raji cells cultured in vitro.
(§2) A certain number of cells in logarithmic growth phase were seeded into a 96-well culture plate, and drugs at different concentrations were added to the culture plate for reaction for 72 h. After the reaction was completed, an MTT working solution was added for reaction for 4 h, then blue-purple crystalline formazan was dissolved with a triplex solution.
(§3) From the inhibition rate at each concentration, the half maximal inhibitory concentration IC50 was calculated using PrismGraph 8.

[2] = test system: human diffuse large B-cell lymphoma WSU-DLCL2-induced nude mouse subcutaneous xenograft tumor; format: in vivo, nude mice (BALB/c-nu); conditions: 3 mg/kg, IV
Description: This example was performed to further evaluate and compare the efficacy of ADC drugs on WSU-DLCL2-induced nude mouse subcutaneous xenograft tumor.
Experimental steps: each nude mouse was subcutaneously inoculated with 2×10^7 WSU-DLCL2 cells, and after the tumor volume reached 100-150 mm^3, the animals were grouped according to tumor volume (D0). The mice were administrated by intravenous injection (IV) at an administration volume of 10 mL/kg. The tumor volumes and body weights were measured twice a week and the results were recorded.
Unless otherwise indicated, comparison between tumor volumes of the two groups was made by two-tailed Student's t-test, with P<0.05 defined as statistically significant difference.

WSU-DLCL2 = format: cell-based, human; conditions: WSU-DLCL2 (CD79B low-expression), 72 h, MTT
Description: as §1, §2, §3

[3] = test system: human diffuse large B-cell lymphoma WSU-DLCL2-induced nude mouse subcutaneous xenograft tumor; format: in vivo, nude mice (BALB/c-nu); conditions: for Mean tumor volume (mm^3 ± SEM) D0 / Mean tumor volume (mm^3 ± SEM) D21 / Tumor growth inhibition (%) D21 / T/C (%) D21 / Partial regression: IV; for Mean tumor volume (mm^3 ± SEM) D0: baseline at grouping; for Mean tumor volume (mm^3 ± SEM) D21 / Tumor growth inhibition (%) D21 / T/C (%) D21 / Partial regression: single dose D0; for T/C (%) D21: control IgG1; for Partial regression: tumors (of 6) with volume on D21 less than on D0
Description: This example was performed to evaluate and compare the efficacy of ADC drugs on nude mouse subcutaneous xenograft tumor.
Cells and mice: human diffuse large B-cell lymphoma WSU-DLCL2 cells were purchased from American Type Culture Collection. WSU-DLCL2 cells were cultured in a 10 cm petri dish with an RPMI 1640 culture medium (Gibco) containing 10% fetal bovine serum, penicillin and streptomycin and incubated in an incubator at 37° C. with 5% CO2. Subculturing was performed 2-3 times a week, and cells were collected, counted and seeded when they were in exponential growth phase.
Nude mice, BALB/c-nu, 35 days of age, female, were purchased from Beijing Huafukang Biotechnology Co., Ltd, with production license number of SCXK (Beijing) 2019-0008, and animal certification number of 1103222011004014. Housing environment: SPF grade.
The experimental index is to study the effect of the drug on the tumor growth, and the specific index is T/C % or tumor growth inhibition TGI (%).
Tumor diameters were measured twice a week with a vernier caliper and tumor volume (V) was calculated according to the following formula: V=½×a×b^2, where a and b represent length and width, respectively.
T/C (%)=(T−T0)/(C−C0)×100, where T and C represent the tumor volume of animals at the end of the experiment in the treatment group and control group, respectively; T0 and C0 represent the tumor volume of animals at the beginning of the experiment in the treatment group and control group, respectively; where T is the tumor volume of the ADC administered and C is the tumor volume of IgG1 administered as a control group.
At the end of the experiment, at the experiment endpoint, or when the mean tumor volume in the solvent group reached 1500 mm^3, the animals were sacrificed by CO2 anesthesia and dissected to give the tumors. The tumors were photographed. Unless otherwise indicated, comparison between tumor volumes of the two groups was made by two-way ANOVA test, with P<0.05 defined as statistically significant difference.

DoHH2 = format: cell-based, human; conditions: DoHH2 (CD79B high-expression), 72 h, MTT
Description: as §1, §2, §3

human CD79B = biological target: T1, human CD79B (Homo sapiens, UniProt P40259); test: Biacore affinity assay of CD79B antibodies and ADCs; set-up: His; purchased Sino Biological 29750-H08H; conditions: binding force to human CD79B protein
T1 sequence (P40259 29-159 limits assumed): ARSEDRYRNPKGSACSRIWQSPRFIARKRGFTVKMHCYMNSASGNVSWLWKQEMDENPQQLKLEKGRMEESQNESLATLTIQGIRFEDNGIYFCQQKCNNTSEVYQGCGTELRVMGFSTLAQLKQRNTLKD
Description: Experimental instruments, materials and reagents: Biacore T200 (GE); biosensor chip CM5 (Cat. #BR-1005-30, GE); amino coupling kit (Cat. #BR-1000-50, GE); human antibody capture kit (Cat. #BR-1008-39, GE); human CD79B-His protein (Cat. #29750-H08H, Sino Biological); HBS-EP+10× buffer (Cat. #BR-1006-69, GE) diluted to 1× (pH 7.4) with D. I. Water.
Experimental procedures: human antibody capture antibodies were covalently coupled to a CM5 biochip according to the method described instructions of the human antibody capture kit for affinity capture of a certain amount of CD79B antibody.
Statistics and analysis of data: data were fitted by BIAevaluation version 4.1, GE software using a (1:1) Langmuir model to obtain affinity values.

[4] = test system: human follicular lymphoma DOHH-2-induced nude mouse subcutaneous xenograft tumor; format: in vivo, nude mice (BALB/c-nu); conditions: 1 mg/kg, IV
Description: This example was performed to further evaluate and compare the efficacy of ADC drugs on DoHH2-induced nude mouse subcutaneous xenograft tumor.
2. Cells and mice: DOHH-2 cells were purchased from DSMZ, Germany.
Nude mice, BALB/c-nu, 4-5 weeks of age, female, were purchased from Shanghai Lingchang Biotechnology Co., Ltd, with production license number of SCXK (Shanghai) 2018-0003, and animal certification number of 20180003010222. Housing environment: SPF grade.
3. […] The mice were administrated by intravenous injection (IV) at an administration volume of 10 mL/kg.
At the end of the experiment, at the experiment endpoint, or when the mean tumor volume in the solvent group reached 1500 mm^3, the animals were sacrificed by CO2 anesthesia and dissected to give the tumors. The tumors were photographed.

ADC-8: SN8 conjugated with MC-VC-PAB-MMAE; positive drug ADC-8 (namely Polivy) [reference compound]
Endocytosis rate (4 h) [1]: 76%
IC50 (Raji): >10000 ng/mL
Mean tumor volume (mm^3) D0 ([2]; D0, baseline at grouping): 105.0 mm^3
% T/C D21 ([2]; single dose D0, D21): 90%
% Tumor growth inhibition D21 ([2]; single dose D0, D21): 10%
Mean tumor volume (mm^3) D21 ([2]; single dose D0, D21): 792.6 mm^3
Partial regression ([2]; single dose D0, tumors of 6): 0
IC50 (WSU-DLCL2): 116.9 ng/mL
efficacy on WSU-DLCL2-induced nude mouse subcutaneous xenograft tumor (conclusion) ([3]; 3 mg/kg or 10 mg/kg, single intravenous injection): significant efficacy
Mean tumor volume (mm^3 ± SEM) D0 ([3]; 3 mg/kg): 117.6 ± 3.0 mm^3
Mean tumor volume (mm^3 ± SEM) D21 ([3]; 3 mg/kg): 547.2 ± 38.1 mm^3
Tumor growth inhibition (%) D21 ([3]; 3 mg/kg): 39%
T/C (%) D21 ([3]; 3 mg/kg): 61%
Partial regression ([3]; 3 mg/kg): 0
Mean tumor volume (mm^3 ± SEM) D0 ([3]; 10 mg/kg): 115.0 ± 3.7 mm^3
Mean tumor volume (mm^3 ± SEM) D21 ([3]; 10 mg/kg): 167.8 ± 50.3 mm^3
Tumor growth inhibition (%) D21 ([3]; 10 mg/kg): 93%
T/C (%) D21 ([3]; 10 mg/kg): 7%
Partial regression ([3]; 10 mg/kg): 4/6 and 4
IC50 (DoHH2): 80.6 ng/mL
EC50 (human CD79B): 5.98 nM
Mean tumor volume (mm^3) D0 ([4]; D0, baseline at grouping): 117.1 mm^3
Mean tumor volume (mm^3) D20 ([4]; single dose D0, D20): 862.1 mm^3
Tumor growth inhibition (%) D20 ([4]; single dose D0, D20): 41%
T/C (%) D20 ([4]; single dose D0, D20, control IgG1): 59%
Partial regression ([4]; single dose D0, tumors of 6): 0
